Values after ≈ are worked out from the molar mass of the structure shown.
Assays:
Format in all cases: cell-based
[1] = tested on: Staph. Aureus; experiment: in vitro antibacterial activity (MIC), Staph. Aureus; details: Staphylococcus aureus
Excerpt: (§1) The MIC is expressed as μg/ml.

[2] = tested on: Staph. Aureus Tour; experiment: in vitro antibacterial activity (MIC), Staph. Aureus Tour; details: Staphylococcus aureus
Excerpt: as §1

[3] = tested on: Strept. haemolyticus; experiment: in vitro antibacterial activity (MIC), Strept. haemolyticus
Excerpt: as §1

[4] = tested on: Strept. faecalis; experiment: in vitro antibacterial activity (MIC), Strept. faecalis; details: Enterococcus faecalis
Excerpt: as §1

[5] = tested on: Strept. pneumoniae; experiment: in vitro antibacterial activity (MIC), Strept. pneumoniae; details: Streptococcus pneumoniae
Excerpt: as §1

[6] = tested on: Proteus vulgaris; experiment: in vitro antibacterial activity (MIC), Proteus vulgaris
Excerpt: as §1

[7] = tested on: Escherichia coli; experiment: in vitro antibacterial activity (MIC), Escherichia coli
Excerpt: as §1

[8] = tested on: Kleb. pneumoniae; experiment: in vitro antibacterial activity (MIC), Kleb. pneumoniae; details: Klebsiella pneumoniae
Excerpt: as §1

[9] = tested on: Pseud. aeruginosa; experiment: in vitro antibacterial activity (MIC), Pseud. aeruginosa; details: Pseudomonas aeruginosa
Excerpt: as §1

[10] = tested on: Myc. Tub. H37 Rv; experiment: in vitro antibacterial activity (MIC), Myc. Tub. H37 Rv

| SMILES | MIC [1] [ng/mL] | MIC [2] [ng/mL] | MIC [3] [µg/mL] | MIC [4] [ng/mL] | MIC [5] [ng/mL] | MIC [6] [µg/mL] | MIC [7] [µg/mL] | MIC [8] [µg/mL] | MIC [9] [µg/mL] | MIC [10] [µg/mL] |
| --- | --- | --- | --- | --- | --- | --- | --- | --- | --- | --- |
| CCc1nc2c(s1)c1c(O)c3c(O)c(C)c4c(c32)C(=O)C(C)(OC=CC(OC)C(C)C(OC(C)=O)C(C)C(O)C(C)C(O)C(C)C=CC=C(C)C(=O)N1)O4 (stereo not shown) [Example 1, 4-Deoxy-2'-ethyl-thiazolo[5,4-c]rifamycin SV] | 0.4 (≈ 0.000522 µM) | 0.78 (≈ 0.00102 µM) | 0.012 (≈ 0.0156 µM) | 6.2 (≈ 0.00808 µM) | 6.2 (≈ 0.00808 µM) | 6.25 (≈ 8.15 µM) | 12.5 (≈ 16.3 µM) | 25 (≈ 32.6 µM) | 12.5 (≈ 16.3 µM) | 0.31 (≈ 0.404 µM) |
| COC1C=COC2(C)Oc3c(C)c(O)c4c(O)c(c5sc(C)nc5c4c3C2=O)NC(=O)C(C)=CC=CC(C)C(O)C(C)C(O)C(C)C(OC(C)=O)C1C (stereo not shown) [Example 2, 4-Deoxy-2'-methyl-thiazolo[5,4-c]rifamycin SV] | 0.78 (≈ 0.00104 µM) | 3.1 (≈ 0.00412 µM) | 0.0031 (≈ 0.00412 µM) | 3.1 (≈ 0.00412 µM) | 6.2 (≈ 0.00824 µM) | 1.56 (≈ 2.07 µM) | 12.5 (≈ 16.6 µM) | 25 (≈ 33.2 µM) | 25 (≈ 33.2 µM) | 0.62 (≈ 0.824 µM) |
| CCCc1nc2c(s1)c1c(O)c3c(O)c(C)c4c(c32)C(=O)C(C)(OC=CC(OC)C(C)C(OC(C)=O)C(C)C(O)C(C)C(O)C(C)C=CC=C(C)C(=O)N1)O4 (stereo not shown) [Example 3, 4-Deoxy-2'-propyl-thiazolo[5,4-c]rifamycin SV] | 0.78 (≈ 0.000999 µM) | 1.56 (≈ 0.002 µM) | 0.0031 (≈ 0.00397 µM) | 1.56 (≈ 0.002 µM) | 0.78 (≈ 0.000999 µM) | 3.12 (≈ 4 µM) | 12.5 (≈ 16 µM) | 25 (≈ 32 µM) | 12.5 (≈ 16 µM) | 0.62 (≈ 0.794 µM) |
| COC1C=COC2(C)Oc3c(C)c(O)c4c(O)c(c5sc(C(C)C)nc5c4c3C2=O)NC(=O)C(C)=CC=CC(C)C(O)C(C)C(O)C(C)C(OC(C)=O)C1C (stereo not shown) [Example 4, 4-Deoxy-2'-isopropyl-thiazolo[5,4-c]rifamycin SV] | 0.78 (≈ 0.000999 µM) | 1.56 (≈ 0.002 µM) | 0.012 (≈ 0.0154 µM) | 12 (≈ 0.0154 µM) | 12 (≈ 0.0154 µM) | 6.25 (≈ 8 µM) | 12.5 (≈ 16 µM) | 25 (≈ 32 µM) | 12.5 (≈ 16 µM) | 0.31 (≈ 0.397 µM) |
| COC1C=COC2(C)Oc3c(C)c(O)c4c(O)c(c5sc(CC(C)C)nc5c4c3C2=O)NC(=O)C(C)=CC=CC(C)C(O)C(C)C(O)C(C)C(OC(C)=O)C1C (stereo not shown) [Example 5, 4-Deoxy-2'-isobutyl-thiazolo[5,4-c]rifamycin SV] | 0.78 (≈ 0.000981 µM) | 1 (≈ 0.00126 µM) | 0.001 (≈ 0.00126 µM) | 6.2 (≈ 0.0078 µM) | 6.2 (≈ 0.0078 µM) | 3.12 (≈ 3.92 µM) | 12.5 (≈ 15.7 µM) | 50 (≈ 62.9 µM) | 12.5 (≈ 15.7 µM) | 0.15 (≈ 0.189 µM) |
| CCCCCCc1nc2c(s1)c1c(O)c3c(O)c(C)c4c(c32)C(=O)C(C)(OC=CC(OC)C(C)C(OC(C)=O)C(C)C(O)C(C)C(O)C(C)C=CC=C(C)C(=O)N1)O4 (stereo not shown) [Example 6, 4-Deoxy-2'-hexyl-thiazolo[5,4-c]rifamycin SV] | 1.2 (≈ 0.00146 µM) | 3.1 (≈ 0.00377 µM) | 0.012 (≈ 0.0146 µM) | 12 (≈ 0.0146 µM) | 12 (≈ 0.0146 µM) | 3.12 (≈ 3.79 µM) | 12.5 (≈ 15.2 µM) | 25 (≈ 30.4 µM) | 12.5 (≈ 15.2 µM) | 1.2 (≈ 1.46 µM) |
| COC1C=COC2(C)Oc3c(C)c(O)c4c(O)c(c5scnc5c4c3C2=O)NC(=O)C(C)=CC=CC(C)C(O)C(C)C(O)C(C)C(O)C1C (stereo not shown) [Example 8, 25-Desacetyl-4-deoxy-thiazolo[5,4-c]rifamycin SV] | 20 (≈ 0.0287 µM) | 100 (≈ 0.144 µM) | 0.1 (≈ 0.144 µM) | 400 (≈ 0.574 µM) | 100 (≈ 0.144 µM) | 0.78 (≈ 1.12 µM) | 6.25 (≈ 8.97 µM) | 12.5 (≈ 17.9 µM) | 12.5 (≈ 17.9 µM) | 0.6 (≈ 0.861 µM) |
